Key:
Phosphodiesterase 4 = Phosphodiesterase 4 (Homo sapiens, UniProt P27815+Q08499+Q07343+Q08493); assay: Inhibition of Phosphodiesterase 4 (PDE-4) from human U937 cells; type: cell-based; conditions: u-937
[1] = biological target: Phosphodiesterase 3 (Homo sapiens) (UniProt Q14432+Q13370); assay: Inhibition of Phosphodiesterase 3 (PDE3) from human platelet at 20 uM
[2] = Tested for the half life period of the compound, intravenously; type: ADME, organism-based, Cavia porcellus; conditions: guinea pig, in vivo, iv
[3] = Compound at a dose 5 mg/kg was administered orally to guinea pig and the pharmacokinetic parameter (Cmax) was reported; type: ADME, organism-based, Cavia porcellus; design: dose 5 mg/kg, route oral; conditions: in vivo, po
[4] = Tested for the pharmacokinetic parameter in guinea pig, administered orally at 5 mg/kg; type: ADME, organism-based, Cavia porcellus; design: dose 5 mg/kg, route oral; conditions: in vivo, po
[5] = Tested for the oral bioavailability of the compound; type: ADME, organism-based, Cavia porcellus; conditions: guinea pig, in vivo, read-out: Bioavailabiility

Row | IC50 (Phosphodiesterase 4) | SMILES | also measured
1 | 290 nM | COc1ccc(C(=O)Nc2c(Cl)cncc2Cl)c2c1nc(C(F)(F)F)n2C | inhibition [1]: 11%
2 | 480 nM | COc1ccc(C(=O)Nc2c(Cl)cncc2Cl)c2c1nc(C(C)=O)n2C | –
3 | 120 nM | COc1ccc(C(=O)Nc2c(Cl)cncc2Cl)c2[nH]c(C(F)(F)F)nc12 | inhibition [1]: 43%
4 | 110 nM | COc1ccc(C(=O)Nc2ccncc2Cl)c2cccnc12 | –
5 | 1 nM | COc1ccc(C(=O)Nc2c(Cl)cncc2Cl)c2cc(C(C)=O)oc12 | –
6 | 170 nM | COc1ccc(C(=O)Nc2c(Cl)cncc2Cl)c2cccnc12 | half-life [2]: 36 min; Cmax [3]: 473 ng/mL; AUC [4]: 925 ng·h/mL; bioavailability [5]: 62%
7 | 1900 nM | COc1ccc(C(=O)Nc2ccncc2)c2cccnc12 | –
